Entries after “also recorded” stand apart in the source; their conditions may differ. One block for each molecule: values may come before it.
Tests used:
FVIII deficient plasma = assay: aPTT based one stage clotting assay in FVIII deficient plasma; assay type: biochemical, human
Experimental: During normal hemostasis, FIX becomes initially activated either by the tissue factor (TF)/factor VIIa pathway or later on by activated factor XI (FXIa). Subsequent to its activation, FIXa associates on the platelet surface in a membrane bound complex with activated FVIII. […] Different amounts of antibody 193/AD3 or mouse IgG (as a control) were used in a standard aPTT based one stage clotting assay. Briefly, 100 μl of antibody-containing samples were incubated with 100 μl of FVIII deficient plasma (DP) and with 100 μl of DAPTTIN (PTT Reagent for determining activated Thromboplastin Time; IMMUNO AG) reagent, in a KC10A clotting analyzer. Where indicated, a total amount of 50 ng activated FIX was included in the reaction mixture. After a 4 minute incubation, the reaction was started by the addition of 100 μl CaCl2 (25 mM).
The peptides were also analyzed for their potential to reduce the clotting time in a FVIII deficient plasma. The aPTT based one stage clotting assay was essentially done as described (see example 6). Clotting times (time from starting the reaction to the “clot”-formation were compared either against FVIII, a buffer control (IZ) or a control peptide (scrambled version). The results of two typical clotting experiments done with two different aPTT reagents (DAPTTIN and Pathromtin SL) are shown in table 3A and table 3B.

human FIXa = biological target: T1, human FIXa (Homo sapiens, UniProt P00740); assay: Chromogenic FVIII-like (FXa generation) assay with human FIXa added; assay type: biochemical
T1 construct: with (+) and without (−) addition of 50 ng human FIXaβ; purchased ERL (Enzyme Research Laboratories)
Experimental: The chromogenic activity of these antibody preparations was measured in the following FXa generation kinetic assay: 10 μg of monoclonal antibody (in 25 μl) were transferred to microtiter plate wells and warmed to 37° C. Chromogenic substrate (S-2222), synthetic thrombin inhibitor (I-2581), factor IXa and FX were reconstituted in sterile water and FIXa/FX (both bovine) were mixed with phospholipids according to the supplier's protocol. Per reaction, 50 μl of the phospholipid/FIXa/FX solution were combined with 25 μl CaCl2 (25 mM) and 50 μl of the substrate/inhibitor cocktail. To start the reaction, 125 μl of the premix were added to the monoclonal antibody solution in the microtiter plates and incubated at 37° C. Absorbance at 405 nm and 490 nm of the samples was read at various times (5 min to 2 h) against a reagent blank ([…] TBS instead of monoclonal antibodies) in a Labsystems iEMS Reader MF™ microtiter plate reader using GENESIS™ software. In parallel, the same reactions were performed except that 50 ng human FIXa were added per reaction.
To analyze the FVIII-like (FIXa activating) activity of the peptides, an assay system based on a commercial available FVIII assay was developed (see examples 2 and 4). The basic principle is, that without a cofactor, FIXa will have very limited activity towards its natural substrate FX. […] The amount of FXa generated is monitored by cleavage of a chromogenic substrate. The principle of the revised chromogenic assay is described for two representative peptides: A1/3 and A1/5 (Table 2). Briefly, 25 μl aliquots of peptide stock solution (in imidazole buffer (IZ) 50 mM imidazole, 100 mM NaCl, pH 7.2) were transferred to microtiter plate wells and warmed to 37° C. Chromogenic FXa substrate (S-2222), synthetic thrombin inhibitor (I-2581), bovine FIXa and bovine FX were reconstituted in sterile water and FIXa/FX mixed with phospholipids according to the supplier's protocol. […] Per reaction, 50 μl of the phospholipid/FIXa/FX solution were combined with 25 μl CaCl2 (25 mM) and 50 μl of the substrate/inhibitor cocktail. To start the reaction, 125 μl of the premix were added to the peptide solution in the microtiter plate and incubated at 37° C. Absorbance at 405 nm and 490 nm of the samples was read at various times (5 min to 2 h) against a reagent blank in a Labsystems iEMS Reader MF™ microtiter plate reader using GENESIS™ software.

T1 sequence (P00740 47-191 limits assumed): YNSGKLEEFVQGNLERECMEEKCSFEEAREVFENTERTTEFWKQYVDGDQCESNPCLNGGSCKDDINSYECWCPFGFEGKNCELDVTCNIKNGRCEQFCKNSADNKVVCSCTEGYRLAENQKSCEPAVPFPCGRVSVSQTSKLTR
T1 sequence (P00740 227-461 limits assumed): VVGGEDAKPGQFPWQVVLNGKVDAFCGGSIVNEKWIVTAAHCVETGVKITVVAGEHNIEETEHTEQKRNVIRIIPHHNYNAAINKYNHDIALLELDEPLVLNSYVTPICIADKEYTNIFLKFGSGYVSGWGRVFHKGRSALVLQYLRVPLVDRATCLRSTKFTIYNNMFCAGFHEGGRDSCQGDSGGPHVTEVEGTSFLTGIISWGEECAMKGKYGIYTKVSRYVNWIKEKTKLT

Molecule: EEEEGGGYYVNWYFDEEE [A1/2]
- chromogenic FVIII-like activity (FXa generation) (human FIXa; 2.9 nM human FIXa): did not give any significant chromogenic activity

Molecule: RdRdRdGEYGVYWNGDFYRdRdRd [A1/3-Rd-srmb]
- average clotting time (FVIII deficient plasma; Table 4, 1.25 μM, 2.2 nM FIXa): 103 s
- clotting time (FVIII deficient plasma; Table 4, 1.25 μM, 2.2 nM FIXa, duplicate 1): 101.1 s
- clotting time (FVIII deficient plasma; Table 4, 1.25 μM, 2.2 nM FIXa, duplicate 2): 105.3 s
- average clotting time (FVIII deficient plasma; Table 4, 1.25 μM, w/o FIXa): 107 s
- clotting time (FVIII deficient plasma; Table 4, 1.25 μM, w/o FIXa, duplicate 1): 107.2 s
- clotting time (FVIII deficient plasma; Table 4, 1.25 μM, w/o FIXa, duplicate 2): 107.1 s
- average clotting time (FVIII deficient plasma; Table 4, 2.5 μM, 2.2 nM FIXa): 105 s
- clotting time (FVIII deficient plasma; Table 4, 2.5 μM, 2.2 nM FIXa, duplicate 1): 105 s
- clotting time (FVIII deficient plasma; Table 4, 2.5 μM, 2.2 nM FIXa, duplicate 2): 104.2 s
- average clotting time (FVIII deficient plasma; Table 4, 2.5 μM, w/o FIXa): 112 s
- clotting time (FVIII deficient plasma; Table 4, 2.5 μM, w/o FIXa, duplicate 1): 111.9 s
- clotting time (FVIII deficient plasma; Table 4, 2.5 μM, w/o FIXa, duplicate 2): 111.9 s
- average clotting time (FVIII deficient plasma; Table 4, 5 μM, 2.2 nM FIXa): 108 s
- clotting time (FVIII deficient plasma; Table 4, 5 μM, 2.2 nM FIXa, duplicate 1): 108.5 s
- clotting time (FVIII deficient plasma; Table 4, 5 μM, 2.2 nM FIXa, duplicate 2): 108.2 s
- average clotting time (FVIII deficient plasma; Table 4, 5 μM, w/o FIXa): 113 s
- clotting time (FVIII deficient plasma; Table 4, 5 μM, w/o FIXa, duplicate 1): 113.1 s
- clotting time (FVIII deficient plasma; Table 4, 5 μM, w/o FIXa, duplicate 2): 112.4 s
- average clotting time (FVIII deficient plasma; Table 4, 7.5 μM, 2.2 nM FIXa): 107 s
- clotting time (FVIII deficient plasma; Table 4, 7.5 μM, 2.2 nM FIXa, duplicate 1): 107.6 s
- clotting time (FVIII deficient plasma; Table 4, 7.5 μM, 2.2 nM FIXa, duplicate 2): 106.6 s
- average clotting time (FVIII deficient plasma; Table 4, 7.5 μM, w/o FIXa): 114 s
- clotting time (FVIII deficient plasma; Table 4, 7.5 μM, w/o FIXa, duplicate 1): 114.6 s
- clotting time (FVIII deficient plasma; Table 4, 7.5 μM, w/o FIXa, duplicate 2): 113.6 s
- average clotting time (FVIII deficient plasma; Table 4, 10 μM, 2.2 nM FIXa): 108 s
- clotting time (FVIII deficient plasma; Table 4, 10 μM, 2.2 nM FIXa, duplicate 1): 107.2 s
- clotting time (FVIII deficient plasma; Table 4, 10 μM, 2.2 nM FIXa, duplicate 2): 107.8 s
- average clotting time (FVIII deficient plasma; Table 4, 10 μM, w/o FIXa): 116 s
- clotting time (FVIII deficient plasma; Table 4, 10 μM, w/o FIXa, duplicate 1): 115.8 s
- clotting time (FVIII deficient plasma; Table 4, 10 μM, w/o FIXa, duplicate 2): 115.3 s
- average clotting time (FVIII deficient plasma; Table 4, 12.5 μM, 2.2 nM FIXa): 108 s
- clotting time (FVIII deficient plasma; Table 4, 12.5 μM, 2.2 nM FIXa, duplicate 1): 108.1 s
- clotting time (FVIII deficient plasma; Table 4, 12.5 μM, 2.2 nM FIXa, duplicate 2): 107.8 s
- average clotting time (FVIII deficient plasma; Table 4, 12.5 μM, w/o FIXa): 118 s
- clotting time (FVIII deficient plasma; Table 4, 12.5 μM, w/o FIXa, duplicate 1): 117.2 s
- clotting time (FVIII deficient plasma; Table 4, 12.5 μM, w/o FIXa, duplicate 2): 118 s
- average clotting time (FVIII deficient plasma; Table 4, 15 μM, 2.2 nM FIXa): 113 s
- clotting time (FVIII deficient plasma; Table 4, 15 μM, 2.2 nM FIXa, duplicate 1): 112.7 s
- clotting time (FVIII deficient plasma; Table 4, 15 μM, 2.2 nM FIXa, duplicate 2): 112.4 s
- average clotting time (FVIII deficient plasma; Table 4, 15 μM, w/o FIXa): 122 s
- clotting time (FVIII deficient plasma; Table 4, 15 μM, w/o FIXa, duplicate 1): 121.9 s
- clotting time (FVIII deficient plasma; Table 4, 15 μM, w/o FIXa, duplicate 2): 121.3 s

Molecule: EYGEGYGEVNEYDEFEWE [A1/4]
- chromogenic FVIII-like activity (FXa generation) (human FIXa; 2.9 nM human FIXa): did not give any significant chromogenic activity

B1: 198/B1: anti-FIX/FIXa monoclonal IgG, ECACC No. 99090925; 198/AB2 is an identical subclone (protein)
scFv: EVQLQESGGGLVKPGGSLKLSCAASGFTFSSYTMSWVRQTPEKRLEWVATISSGGSSTYYPDSVKGRFTISRDNAKNTLYLQMSSLRSEDTAMYYCTREGGGFTVNWYFDVWGAGTLVTVSAGGGGSGGRASGGGGSENVLTQSPASLAVSLGQRATISCRASESVDSYGYNFMHWYQQIPGQPPKLLIYRASNLESGIPARFSGSGSRTDFTLTINPVEADDVATYYCQQSNEDPLTFGTGTRLEIKR
modifications: scFv derived from IgG; Description of Artificial Sequence:scFv from hybridoma cell line 198/AB2 (subclone of 198/B1)
notes: anti-FIX/FIXa monoclonal IgG, ECACC No. 99090925; 198/AB2 is an identical subclone
- procoagulant activity (FVIII deficient plasma; one-stage clotting assay in the presence of FIXa): show procoagulant activity

B2: MycHis-198AB2#102: 198/B1 (subclone AB2) scFv fragment with c-myc-tag and His6-tag (protein)
scFv: B1 scFv
modifications: left off: small tags and cut ends
notes: 198/B1 (subclone AB2) scFv fragment with c-myc-tag and His6-tag
- chromogenic FVIII-like activity (FXa generation) (human FIXa; 2.3 nM human FIXa): gave rise to a substantial FXa generation

B3: 198/A1 Fab fragment: Fab fragment of antibody 198/A1 made with papain, purified on protein L (antibody, V domains shown)
VH: EVQLQESGGGLVKPGGSLKLSCAASGFIFSSYTMSWVRQTPEKRLEWVATISSGGSSTYYPDSVKGRFTISRDNAKNTLYLQMSSLKSEDTAMYHCTREGGGYYVNWYFDVWGAGTTLTVSS
VL: DIELTQSPASLAVSLGQRATISCRASESVDSYGKSFMHWYQQKPGQPPKLLIYRASNLESGIPARFSGSGSRTDFTLTINPVEADDVATYYCQQSNEDPLTFGAGTRLEIKR
- chromogenic FVIII-like activity (FXa generation) (human FIXa; 2.3 nM human FIXa): still gives rise to FIX dependent FXa generation
- chromogenic activity compared to intact antibody (human FIXa; 2.3 nM human FIXa): somewhat less activity

Further lines, with some results ahead:

- FIXa activating activity in chromogenic assay (human FIXa; data not shown): no activity
Molecule: EEEEGGGFTVNWYFDEEE [B1/6]
- clotting time (FVIII deficient plasma; 12.5 nM peptide, (+) presence of activated human FIX): 100 s
- clotting time (FVIII deficient plasma; 12.5 nM peptide, (−) absence of activated human FIX): 111 s
- clotting time (FVIII deficient plasma; 0.125 μM peptide, (+) presence of activated human FIX): 101 s
- clotting time (FVIII deficient plasma; 0.125 μM peptide, (−) absence of activated human FIX): 111 s
- clotting time (FVIII deficient plasma; 1.25 μM peptide, (+) presence of activated human FIX): 100 s
- clotting time (FVIII deficient plasma; 1.25 μM peptide, (−) absence of activated human FIX): 110 s
- clotting time (FVIII deficient plasma; 12.5 μM peptide, (+) presence of activated human FIX): 103 s
- clotting time (FVIII deficient plasma; 12.5 μM peptide, (−) absence of activated human FIX): 115 s

- chromogenic activity (human FIXa; 12 μM peptide, 2.3 nM human FIXa): no significant FXa generation
Molecule: VRYRNRYRWGYRGRFGDE [A1/5]
- chromogenic FVIII-like activity (FXa generation) (human FIXa; 2.9 nM human FIXa): inactive; also recorded: does not give rise to any FXa generation

- FIXa activating activity in chromogenic assay (human FIXa; data not shown): no activity
Molecule: FGVGYRGETRNFDW [B1/5]

- chromogenic activity (human FIXa; chromogenic FVIII assay, data not shown): some chromogenic activity
Molecule: REGGGFTVNWYFDR [B1/4]

- chromogenic FVIII-like activity (FXa generation) (human FIXa; 2.3 nM human FIXa): did not
B4: 8860-M/H#4c: unrelated scFv of #8860 with c-myc-tag and His6-tag, negative control (protein)
scFv: EVQLQQSGPELVKPGASVKISCKASGYAFSSSWMNWVKQRPGQGLEWIGRIYPGNGDTNYNGKFKGKATLTADKSSSTAYMQLSSLTSVDSAVYFCADGNVYYYAMDYWGQGTSVTVSSGGGGSGGRASGGGGSQIVLTQSPASLAVSLGQRATISCRASKSVSTSGYSYMHWYQQKPGQPPKLLIYLASNLESGVPARFSGSGSGTDFTLNIHPVEEEDAATYYCQHSRELPRTFGGGTKLEIKRAAAEQKLISEEDLNGAAHHHHHH
